Assay results as given in article PMC7731310, “Pogostemon cablin Triggered ROS-Induced DNA Damage to Arrest Cell Cycle Progression and Induce Apoptosis on Human Hepatocellular Carcinoma In Vitro and In Vivo” (Molecules, 2020).
Values after ≈ are worked out from the molar mass of the structure shown.

Columns and labels:
[1] = test system: SVEC; experiment: MTT cell viability, SVEC normal cells; assay type: cell-based; conditions: Mus musculus, 48 hr, mean ± SD
Protocol: (§1) HCC cells (5 × 10^3/100 μL), SVEC, MDCK (1 × 10^4/100 μL), and BNL CL.2 cells (4 × 10^4/100 μL) were seeded in a 96-well plate. After incubating overnight at 37 ℃, the cells were treated with serially diluted drug concentrations for 24, 48, and 72 h. The cell viability was measured using an MTT assay.

[2] = test system: MDCK; experiment: MTT cell viability, MDCK normal cells; assay type: cell-based, Canine; conditions: Canis lupus familiaris, 48 hr, mean ± SD
Protocol: as §1

[3] = test system: Mahlavu; experiment: MTT cell viability, Mahlavu; assay type: cell-based, Human; conditions: for IC50: Homo sapiens, Mahlavu, 48 hr, mean ± SD; for Selectivity index (SI) BNL CL.2/Mahlavu / Selectivity index (SI) MDCK/Mahlavu / Selectivity index (SI) SVEC/Mahlavu: IC50 of normal cells/IC50 of HCC cells
Protocol: as §1

[4] = test system: HepG2; experiment: MTT cell viability, HepG2; assay type: cell-based, Human; conditions: for IC50: Homo sapiens, HepG2, 48 hr, mean ± SD; for Selectivity index (SI) BNL CL.2/HepG2 / Selectivity index (SI) MDCK/HepG2 / Selectivity index (SI) SVEC/HepG: IC50 of normal cells/IC50 of HCC cells
Protocol: as §1

[5] = test system: Huh7; experiment: MTT cell viability, Huh7; assay type: cell-based, Human; conditions: for IC50: Homo sapiens, Huh-7, Huh7, 48 hr, mean ± SD; for Selectivity index (SI) BNL CL.2/Huh7 / Selectivity index (SI) MDCK/Huh7 / Selectivity index (SI) SVEC/Huh7: IC50 of normal cells/IC50 of HCC cells
Protocol: as §1

[6] = test system: BNL CL.2; experiment: MTT cell viability, BNL CL.2 normal liver cells; assay type: cell-based; conditions: Mus musculus, 48 hr, mean ± SD
Protocol: as §1

[7] = test system: J5; experiment: MTT cell viability, J5; assay type: cell-based, Human; conditions: for IC50: Homo sapiens, J5, 48 hr, mean ± SD; for Selectivity index (SI) BNL CL.2/J5 / Selectivity index (SI) MDCK/J5 / Selectivity index (SI) SVEC/J5: IC50 of normal cells/IC50 of HCC cells
Protocol: as §1

[8] = test system: HepG2 cells; experiment: Regrowth assay (crystal violet), HepG2; conditions: PPa extract 15 μg/mL, sorafenib 0.2 μg/mL, 4 and 8 days
Protocol: (§2) After that, both cell lines were analyzed for flow cytometry. […] During treatments, fresh drugs were changed every two days and harvested the data at 4 and 8 days. After treatment, cells were stained with 0.1% crystal violet and absorbance was measured at 550 nm after dissolving in 0.5% acetic acid. For detection of indicated protein expressions, cells (2 × 10^6) seeded at 10 cm dishes. […] Cell lysates were collected for western blot.

[9] = test system: Mahlavu cells; experiment: Regrowth assay (crystal violet), Mahlavu; conditions: PPa extract 15 μg/mL, sorafenib 0.2 μg/mL, 4 and 8 days
Protocol: as §2

Compound	IC50 [1] [µg/mL]	IC50 [2] [µg/mL]	IC50 [3] [µg/mL]	IC50 [4] [µg/mL]	IC50 [5] [µg/mL]	IC50 [6] [µg/mL]	IC50 [7] [µg/mL]	Selectivity index (SI) BNL CL.2/Mahlavu [3]	Selectivity index (SI) MDCK/Mahlavu [3]	Selectivity index (SI) SVEC/Mahlavu [3]	Selectivity index (SI) BNL CL.2/HepG2 [4]	Selectivity index (SI) MDCK/HepG2 [4]	Selectivity index (SI) SVEC/HepG [4]	Selectivity index (SI) BNL CL.2/Huh7 [5]	Selectivity index (SI) MDCK/Huh7 [5]	Selectivity index (SI) SVEC/Huh7 [5]	Selectivity index (SI) BNL CL.2/J5 [7]	Selectivity index (SI) MDCK/J5 [7]	Selectivity index (SI) SVEC/J5 [7]	other results
O=c1[nH]cc(F)c(=O)[nH]1 [5-FU, 5-Fluorouracil]	1.69 ± 2.8 (≈ 13 µM)	8.74 ± 0.53 (≈ 67.2 µM)	15 ± 3.71 (≈ 115 µM)	2.09 ± 1.63 (≈ 16.1 µM)	4.88 ± 3.37 (≈ 37.5 µM)	> 20	18.8 ± 0.91 (≈ 144 µM)	–	–	–	–	–	–	–	–	–	–	–	–	–
CNC(=O)c1cc(Oc2ccc(NC(=O)Nc3ccc(Cl)c(C(F)(F)F)c3)cc2)ccn1 [SOR, sorafenib]	8.55 ± 2.73 (≈ 18.4 µM)	6.95 ± 1.45 (≈ 15 µM)	6.07 ± 1.06 (≈ 13.1 µM)	3.52 ± 1.97 (≈ 7.57 µM)	1.77 ± 4.31 (≈ 3.81 µM)	10.8 ± 5.17 (≈ 23.1 µM)	2.39 ± 1.91 (≈ 5.14 µM)	1.8	1.1	1.4	3.1	2.0	2.4	6.1	3.9	4.8	4.5	2.9	3.6	inhibition of cell regrowth [8]: no inhibitory effect; inhibition of cell regrowth [9]: no inhibitory effect
COc1cc([C@@H]2c3cc4c(cc3[C@@H](O[C@@H]3O[C@@H]5CO[C@@H](C)O[C@H]5[C@H](O)[C@H]3O)[C@H]3COC(=O)[C@H]23)OCO4)cc(OC)c1O [VP-16, Etoposide]	1.85 ± 0.49 (≈ 3.14 µM)	3.38 ± 0.43 (≈ 5.74 µM)	4.54 ± 2.17 (≈ 7.71 µM)	4.73 ± 3.57 (≈ 8.04 µM)	5.11 ± 2.08 (≈ 8.68 µM)	6.43 ± 3.02 (≈ 10.9 µM)	3.01 ± 2.75 (≈ 5.11 µM)	1.4	0.8	0.4	1.4	0.7	0.4	1.3	0.7	0.4	2.1	1.1	0.6	–
